In the oligonucleotide strings, read from the 5' end, every base follows the letter of its sugar. An asterisk marks phosphorothioate; unmarked linkages are phosphodiester. Other units and linkages are bracketed, terminal groups are in braces. A string of capitals states the bases alone. {NAG37} = tridentate N-acetyl-galactosamine targeting ligand, structure (NAG37)s; [invAb] = inverted abasic unit; m = 2'-O-methyl; f = 2'-fluoro
Key:
ANGPTL3 gene = assay: Example 12: serum LDL in LDLR knockout mice; type: in vivo, LDLR KO mice; conditions: 3.0 mg/kg sc day 1
Excerpt: To evaluate the effect of RNAi agent administration in a disease model, mice having a genetic mutation for the LDL receptor (referred to herein as LDLR KO mice) were commercially obtained (The Jackson Laboratory). The LDLR KO mice are homozygous for the Ldlr^tm1Her mutation, and have elevated serum cholesterol levels, particularly when placed on a high fat diet. For three weeks prior to the onset of the study, thirty-nine (39) LDLR KO mice were placed on a high fat diet (Teklad Custom Diets TD.88137). An additional eight (8) LDLR KO mice were placed on a normal chow diet over the same three-week period. Pre-dose serum samples were taken on day −15 and day −1 after a four hour fast. At day 1, each mouse was given a single subcutaneous administration of 200 μl/30 g animal body weight containing the respective mg/kg dose of an ANGPTL3 RNAi agent in D5W (dextrose in 5% water), control (D5W) with no RNAi agent, or a control RNAi agent that included a nucleotide sequence designed to target the Hepatitis B Virus (HBV) genome. A second injection of the same formulation was administered to the animals on day 29. The dosing regimen for the study is recited in the following Table 60:
Each mouse remained on its respective diet through the duration of study. The RNAi agent tested (AD05488) included a modified sequence and an N-acetyl-galactosamine-containing targeting ligand conjugated to the 5′ terminal end of the sense strand. (See Tables 3, […] modified sequences and targeting ligand structures). The injections were performed between the skin and muscle (i.e. subcutaneous injections) into the loose skin over the neck and shoulder area. Serum was collected on days 8, 15, 22, 29 (pre-second dose), 36, 43, 50, and 57. LDLR KO mice were fasted for four hours prior to each collection. On day 15, four (4) LDLR KO mice from Groups 1, 2, and 3 (i.e., the groups being administered the high fat “Western” diet) were sacrificed after serum collection, and on day 29, an additional four (4) LDLR KO mice from Groups 1, 2, and 3 were sacrificed after serum collection, for the purpose of performing mRNA assessments.
ANGPTL3 protein levels in serum were measured by ELISA assay (R&D Systems), according to the manufacturer's recommendations. Triglycerides, total cholesterol, high-density lipoprotein (HDL), and low-density lipoprotein (LDL) in serum were measured on a Cobas® Integra 400 (Roche Diagnostics), according to the manufacturer's recommendations.
The ANGPTL3 protein levels, triglyceride levels, total cholesterol levels, HDL levels, and LDL levels for each animal were normalized. For normalization, respective levels of ANGPTL3 protein, TG, total cholesterol, HDL, or LDL for each animal at a time point was divided by the average pre-treatment level of expression in that animal (in this case the average of day −15 and day −1) to determine the ratio of expression “normalized to pre-treatment.”
Expression at a specific time point was then normalized to the D5W control group that was administered the same diet (i.e., either the high fat “Western” diet or the normal chow-fed diet) by dividing the “normalized to pre-treatment” ratio for an individual animal by the mean “normalized to pretreatment” ratio of all mice in the D5W control group on the respective same diet, resulting in expression for each time point normalized to that in the control group.

ANGPTL3 protein = assay: Example 9: serum ANGPTL3 protein by ELISA in cynomolgus monkeys; type: in vivo, cynomolgus macaque (Macaca fascicularis); conditions: for Average ANGPTL3 Protein Normalized to Pre-Treatment: 2.0 mg/kg single SC injection day 1, cynos, n=3
Method: Additional ANGPTL3 RNAi agents were evaluated in cynomolgus monkeys. On day 1, cynomolgus macaque (Macaca fascicularis) primates (also referred to herein as “cynos”) were administered a single subcutaneous injection of 0.3 mL/kg (approximately 2-3 mL volume, depending on animal mass) containing 2.0 mg/kg of an ANGPTL3 RNAi agent, which included either AD05488, AD05743, AD05775, or AD05841, each formulated in saline. […] ANGPTL3 RNAi agents AD05488, AD05743, and AD05775 included nucleotide sequences designed to target position 304 of the ANGPTL3 gene. ANGPTL3 RNAi agent AD05841 included nucleotide sequences designed to target position 1035 of the ANGPTL3 gene.
Three (3) cynos in each group were tested (n=3). Blood samples were drawn and serum samples were analyzed on days −14 (predose), −7 (predose), 1 (pre-dose), 8, 15, 22, 29, and 35. Cynos were fasted overnight prior to each collection. ANGPTL3 protein levels in serum were measured by ELISA assay (R&D Systems), according to the manufacturer's recommendations. Triglycerides, total cholesterol, high-density lipoprotein (HDL), and low-density lipoprotein (LDL) in serum were measured on a Cobas® Integra 400 (Roche Diagnostics), according to the manufacturer's recommendations.
The ANGPTL3 protein levels, triglyceride levels, total cholesterol levels, HDL levels, and LDL levels for each animal were normalized. For normalization, the level of ANGPTL3 protein, triglyceride, HDL, and total cholesterol, respectively, for each animal at a time point, was divided by the average pre-treatment level of expression in that animal (in this case at days −14, −7, and 1) to determine the ratio of expression “normalized to pre-treatment.”

“AD05488: RNAi agent duplex: antisense AM07235-AS, sense AM07234-SS (antisense mU*fA*mC*fUmGfAmUfCmAfAmAfUmAfUmGfUmUfGmAfG*mC; sense {NAG37}*[invAb]*mGmCmUmCmAmAmCmAfUfAfUmUmUmGmAmUmCmAmGmUmA*[invAb])” was tested. Which “Avg LDL Normalized to Pre-Treatment and Control (Diet Matched)” value (“Avg LDL Normalized” for short) (ANGPTL3 gene; High Fat Diet, Day 8) did it give?
The value was 0.547.

And the “Avg LDL Normalized” value (ANGPTL3 gene; High Fat Diet, Day 15)?
Its value is 0.476.

What about the “Avg LDL Normalized” value (ANGPTL3 gene; High Fat Diet, Day 22) of the same substance?
The value was 0.429.

And the “Avg LDL Normalized” value (ANGPTL3 gene; High Fat Diet, Day 29 (pre-second dose))?
Its value is 0.419.

And the “Avg LDL Normalized” value (ANGPTL3 gene; Normal Diet, Day 8)?
The value was 0.558.

And the “Avg LDL Normalized” value (ANGPTL3 gene; Normal Diet, Day 15)?
Its value is 0.606.

And the “Avg LDL Normalized” value (ANGPTL3 gene; Normal Diet, Day 22)?
The value was 0.662.

And the “Avg LDL Normalized” value (ANGPTL3 gene; Normal Diet, Day 29 (pre-second dose))?
Its value is 0.563.

What about the “Average ANGPTL3 Protein Normalized to Pre-Treatment” value (from here on “Average ANGPTL3 Protein Normalized”) (ANGPTL3 protein; Day 8) of the same substance?
Its value is 0.232.

What about the “Average ANGPTL3 Protein Normalized” value (ANGPTL3 protein; Day 15) of the same substance?
Its value is 0.240.

And the “Average ANGPTL3 Protein Normalized” value (ANGPTL3 protein; Day 22)?
The value was 0.239.

And the “Average ANGPTL3 Protein Normalized” value (ANGPTL3 protein; Day 29)?
The value was 0.258.

What about the “Average ANGPTL3 Protein Normalized” value (ANGPTL3 protein; Day 35) of the same substance?
The value was 0.332.

And the “reduction in ANGPTL3 protein compared to pre-treatment” value (ANGPTL3 protein; each of the measured time points, single 2.0 mg/kg subcutaneous, cynomolgus monkeys)?
Its value is “reduction”.
